Experimental data: paper PMC11864979, “First-in-class ultralong-target-residence-time p38α inhibitors as a mitosis-targeted therapy for colorectal cancer” (Nature Cancer, 2025)
Where two headings read alike, the source gives them in different places.

Legend:
Experiment in all cases: selectivity profiling in a panel of 340 wild-type kinases (Reaction Biology Europe)
Assay type in all cases: binding
340 wild-type kinases [1] = target: T1, 340 wild-type kinases (Homo sapiens, UniProt Q5VT25)
T1 construct: purchased Reaction Biology Europe
T1 sequence (Q5VT25 whole entry): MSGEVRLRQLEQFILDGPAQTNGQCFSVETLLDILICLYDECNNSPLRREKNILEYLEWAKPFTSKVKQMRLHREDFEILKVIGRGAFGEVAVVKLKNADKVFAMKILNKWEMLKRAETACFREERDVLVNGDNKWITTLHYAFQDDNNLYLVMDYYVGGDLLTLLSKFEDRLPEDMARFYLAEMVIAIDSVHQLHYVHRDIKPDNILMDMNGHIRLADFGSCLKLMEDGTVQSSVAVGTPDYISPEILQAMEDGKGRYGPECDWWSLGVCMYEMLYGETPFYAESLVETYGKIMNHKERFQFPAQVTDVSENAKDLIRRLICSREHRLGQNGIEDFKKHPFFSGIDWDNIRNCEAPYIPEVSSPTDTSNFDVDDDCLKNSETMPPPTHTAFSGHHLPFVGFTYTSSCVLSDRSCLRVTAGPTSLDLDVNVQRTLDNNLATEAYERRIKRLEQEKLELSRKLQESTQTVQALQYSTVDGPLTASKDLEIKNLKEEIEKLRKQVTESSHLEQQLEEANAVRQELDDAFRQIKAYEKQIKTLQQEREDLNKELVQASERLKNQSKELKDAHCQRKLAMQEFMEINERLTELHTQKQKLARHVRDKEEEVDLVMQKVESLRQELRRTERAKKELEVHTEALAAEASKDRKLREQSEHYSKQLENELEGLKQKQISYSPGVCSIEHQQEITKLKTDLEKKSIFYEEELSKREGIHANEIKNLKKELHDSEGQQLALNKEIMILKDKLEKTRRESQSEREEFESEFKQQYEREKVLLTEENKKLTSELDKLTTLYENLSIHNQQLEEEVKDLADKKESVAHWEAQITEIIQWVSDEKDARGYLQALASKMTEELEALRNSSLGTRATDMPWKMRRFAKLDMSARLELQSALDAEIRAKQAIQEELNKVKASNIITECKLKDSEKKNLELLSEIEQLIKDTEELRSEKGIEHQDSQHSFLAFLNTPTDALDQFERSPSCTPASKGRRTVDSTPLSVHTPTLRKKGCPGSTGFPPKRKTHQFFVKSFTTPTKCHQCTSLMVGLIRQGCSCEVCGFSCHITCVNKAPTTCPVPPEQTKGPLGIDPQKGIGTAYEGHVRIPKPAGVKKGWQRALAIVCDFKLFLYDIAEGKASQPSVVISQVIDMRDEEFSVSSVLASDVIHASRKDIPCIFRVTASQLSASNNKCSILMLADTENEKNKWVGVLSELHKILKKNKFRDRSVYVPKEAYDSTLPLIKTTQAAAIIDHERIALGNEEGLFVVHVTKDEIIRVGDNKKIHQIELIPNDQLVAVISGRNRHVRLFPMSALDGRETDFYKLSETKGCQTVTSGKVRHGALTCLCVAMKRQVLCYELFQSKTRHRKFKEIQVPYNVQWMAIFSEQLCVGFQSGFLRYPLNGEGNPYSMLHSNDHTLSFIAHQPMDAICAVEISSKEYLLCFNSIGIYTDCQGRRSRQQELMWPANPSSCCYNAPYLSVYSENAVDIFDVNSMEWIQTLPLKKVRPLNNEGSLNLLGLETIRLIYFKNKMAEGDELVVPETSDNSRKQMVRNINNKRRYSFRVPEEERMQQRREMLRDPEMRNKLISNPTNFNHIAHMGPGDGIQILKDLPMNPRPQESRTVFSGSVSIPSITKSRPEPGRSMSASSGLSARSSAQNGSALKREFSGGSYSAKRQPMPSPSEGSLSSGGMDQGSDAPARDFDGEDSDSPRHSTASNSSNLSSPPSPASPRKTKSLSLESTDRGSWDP

340 wild-type kinases [2] = target: T2, 340 wild-type kinases (Homo sapiens, UniProt Q9UQB9)
T2 construct: purchased Reaction Biology Europe
T2 sequence (Q9UQB9 1-309): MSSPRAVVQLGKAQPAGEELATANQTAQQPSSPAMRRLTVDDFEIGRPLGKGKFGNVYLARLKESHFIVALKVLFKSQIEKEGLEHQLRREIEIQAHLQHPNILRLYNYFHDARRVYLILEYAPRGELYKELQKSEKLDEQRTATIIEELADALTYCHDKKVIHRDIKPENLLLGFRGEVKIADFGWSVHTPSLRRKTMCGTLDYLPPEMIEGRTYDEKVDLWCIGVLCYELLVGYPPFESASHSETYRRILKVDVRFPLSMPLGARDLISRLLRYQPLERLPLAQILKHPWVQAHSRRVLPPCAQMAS

340 wild-type kinases [3] = target: T3, 340 wild-type kinases (Homo sapiens, UniProt O43353)
T3 construct: purchased Reaction Biology Europe

340 wild-type kinases [4] = target: T4, 340 wild-type kinases (Homo sapiens, UniProt Q9H4A3)
T4 construct: purchased Reaction Biology Europe
T4 sequence (Q9H4A3 whole entry): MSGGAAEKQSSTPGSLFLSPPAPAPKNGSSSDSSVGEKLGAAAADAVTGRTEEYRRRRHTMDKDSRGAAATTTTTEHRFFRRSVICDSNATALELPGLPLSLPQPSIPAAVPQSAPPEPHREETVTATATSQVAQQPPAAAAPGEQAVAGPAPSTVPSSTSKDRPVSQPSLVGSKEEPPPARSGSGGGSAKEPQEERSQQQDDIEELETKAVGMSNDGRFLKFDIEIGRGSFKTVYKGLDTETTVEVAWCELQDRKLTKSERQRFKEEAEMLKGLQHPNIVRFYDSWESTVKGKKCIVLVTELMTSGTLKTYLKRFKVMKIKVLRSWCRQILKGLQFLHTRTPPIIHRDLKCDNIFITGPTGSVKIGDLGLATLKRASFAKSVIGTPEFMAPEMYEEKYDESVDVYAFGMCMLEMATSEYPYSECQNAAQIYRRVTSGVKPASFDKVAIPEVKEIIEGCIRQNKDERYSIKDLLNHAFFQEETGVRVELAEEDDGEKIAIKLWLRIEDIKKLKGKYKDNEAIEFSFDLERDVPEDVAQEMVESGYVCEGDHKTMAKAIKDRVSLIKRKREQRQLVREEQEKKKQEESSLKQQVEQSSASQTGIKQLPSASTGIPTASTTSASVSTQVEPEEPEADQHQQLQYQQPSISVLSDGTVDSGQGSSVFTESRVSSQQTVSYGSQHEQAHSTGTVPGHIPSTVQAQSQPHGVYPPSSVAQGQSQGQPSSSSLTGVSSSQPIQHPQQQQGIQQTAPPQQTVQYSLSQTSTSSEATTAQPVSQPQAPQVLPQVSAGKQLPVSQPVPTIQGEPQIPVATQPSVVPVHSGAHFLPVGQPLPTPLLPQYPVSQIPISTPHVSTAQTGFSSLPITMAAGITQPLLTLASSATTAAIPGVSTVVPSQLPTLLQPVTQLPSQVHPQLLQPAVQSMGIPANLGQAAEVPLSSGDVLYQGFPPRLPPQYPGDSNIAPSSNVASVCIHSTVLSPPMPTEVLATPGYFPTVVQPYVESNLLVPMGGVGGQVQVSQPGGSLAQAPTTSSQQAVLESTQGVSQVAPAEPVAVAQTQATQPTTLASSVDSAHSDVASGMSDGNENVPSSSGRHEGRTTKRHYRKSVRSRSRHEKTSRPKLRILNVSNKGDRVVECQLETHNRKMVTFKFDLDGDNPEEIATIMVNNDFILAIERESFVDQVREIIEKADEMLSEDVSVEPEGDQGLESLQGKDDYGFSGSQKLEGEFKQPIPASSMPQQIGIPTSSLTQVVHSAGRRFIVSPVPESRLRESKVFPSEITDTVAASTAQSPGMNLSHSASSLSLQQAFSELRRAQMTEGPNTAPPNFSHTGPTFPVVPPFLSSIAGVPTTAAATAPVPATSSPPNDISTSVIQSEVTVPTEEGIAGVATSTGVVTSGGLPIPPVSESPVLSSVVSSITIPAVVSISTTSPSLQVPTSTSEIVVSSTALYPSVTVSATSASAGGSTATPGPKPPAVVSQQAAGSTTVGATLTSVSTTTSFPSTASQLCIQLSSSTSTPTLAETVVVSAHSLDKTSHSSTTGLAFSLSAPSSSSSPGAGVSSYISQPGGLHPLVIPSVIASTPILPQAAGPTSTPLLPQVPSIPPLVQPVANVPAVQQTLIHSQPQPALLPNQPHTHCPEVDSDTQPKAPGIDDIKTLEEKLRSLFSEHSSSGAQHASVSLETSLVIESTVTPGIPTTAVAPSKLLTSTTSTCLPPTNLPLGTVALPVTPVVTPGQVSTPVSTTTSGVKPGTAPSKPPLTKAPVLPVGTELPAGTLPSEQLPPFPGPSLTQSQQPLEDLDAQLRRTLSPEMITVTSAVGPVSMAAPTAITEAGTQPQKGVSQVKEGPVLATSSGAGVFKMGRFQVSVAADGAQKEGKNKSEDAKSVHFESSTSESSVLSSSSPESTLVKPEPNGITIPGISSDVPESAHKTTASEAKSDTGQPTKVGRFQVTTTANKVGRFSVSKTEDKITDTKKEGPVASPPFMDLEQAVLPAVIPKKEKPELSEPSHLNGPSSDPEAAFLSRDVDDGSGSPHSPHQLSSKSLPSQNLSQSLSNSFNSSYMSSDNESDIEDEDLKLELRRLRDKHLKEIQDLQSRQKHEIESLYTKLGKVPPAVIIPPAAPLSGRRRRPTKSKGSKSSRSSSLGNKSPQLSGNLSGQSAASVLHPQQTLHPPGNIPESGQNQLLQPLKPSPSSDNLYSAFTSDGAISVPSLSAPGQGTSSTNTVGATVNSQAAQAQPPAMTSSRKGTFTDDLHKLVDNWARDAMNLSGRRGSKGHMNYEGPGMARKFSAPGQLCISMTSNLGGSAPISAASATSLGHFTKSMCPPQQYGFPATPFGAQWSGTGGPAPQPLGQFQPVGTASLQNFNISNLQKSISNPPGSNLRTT

340 wild-type kinases [5] = target: T5, 340 wild-type kinases (Homo sapiens, UniProt P11309)
T5 construct: purchased Reaction Biology Europe
T5 sequence (P11309 whole entry): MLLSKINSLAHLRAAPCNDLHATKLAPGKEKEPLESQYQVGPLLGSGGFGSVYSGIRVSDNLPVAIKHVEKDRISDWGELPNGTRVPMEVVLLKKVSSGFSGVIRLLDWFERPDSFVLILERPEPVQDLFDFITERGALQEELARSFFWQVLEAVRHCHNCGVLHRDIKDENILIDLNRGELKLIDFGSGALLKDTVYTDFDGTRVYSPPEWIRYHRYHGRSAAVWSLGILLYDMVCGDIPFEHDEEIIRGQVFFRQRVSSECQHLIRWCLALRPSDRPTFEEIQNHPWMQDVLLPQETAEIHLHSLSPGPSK

340 wild-type kinases [6] = target: T6, 340 wild-type kinases (Homo sapiens, UniProt Q13131)
T6 construct: purchased Reaction Biology Europe
T6 sequence (Q13131 whole entry): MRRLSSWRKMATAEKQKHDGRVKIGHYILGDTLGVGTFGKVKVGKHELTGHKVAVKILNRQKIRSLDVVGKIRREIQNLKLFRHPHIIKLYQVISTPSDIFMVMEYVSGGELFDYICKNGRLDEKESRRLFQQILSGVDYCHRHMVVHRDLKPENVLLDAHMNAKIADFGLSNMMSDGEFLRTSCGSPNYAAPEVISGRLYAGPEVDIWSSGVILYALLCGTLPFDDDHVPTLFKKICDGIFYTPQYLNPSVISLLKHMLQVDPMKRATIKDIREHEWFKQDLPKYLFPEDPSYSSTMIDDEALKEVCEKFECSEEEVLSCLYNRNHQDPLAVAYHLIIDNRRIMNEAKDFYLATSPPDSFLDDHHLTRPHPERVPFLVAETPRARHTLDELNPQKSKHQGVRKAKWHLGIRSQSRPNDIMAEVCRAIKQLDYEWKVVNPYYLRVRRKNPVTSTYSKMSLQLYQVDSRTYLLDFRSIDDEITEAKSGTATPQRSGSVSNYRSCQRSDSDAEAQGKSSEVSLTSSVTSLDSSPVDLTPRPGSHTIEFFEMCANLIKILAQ

340 wild-type kinases [7] = target: T7, 340 wild-type kinases (Homo sapiens, UniProt Q15139)
T7 construct: purchased Reaction Biology Europe
T7 sequence (Q15139 1-912): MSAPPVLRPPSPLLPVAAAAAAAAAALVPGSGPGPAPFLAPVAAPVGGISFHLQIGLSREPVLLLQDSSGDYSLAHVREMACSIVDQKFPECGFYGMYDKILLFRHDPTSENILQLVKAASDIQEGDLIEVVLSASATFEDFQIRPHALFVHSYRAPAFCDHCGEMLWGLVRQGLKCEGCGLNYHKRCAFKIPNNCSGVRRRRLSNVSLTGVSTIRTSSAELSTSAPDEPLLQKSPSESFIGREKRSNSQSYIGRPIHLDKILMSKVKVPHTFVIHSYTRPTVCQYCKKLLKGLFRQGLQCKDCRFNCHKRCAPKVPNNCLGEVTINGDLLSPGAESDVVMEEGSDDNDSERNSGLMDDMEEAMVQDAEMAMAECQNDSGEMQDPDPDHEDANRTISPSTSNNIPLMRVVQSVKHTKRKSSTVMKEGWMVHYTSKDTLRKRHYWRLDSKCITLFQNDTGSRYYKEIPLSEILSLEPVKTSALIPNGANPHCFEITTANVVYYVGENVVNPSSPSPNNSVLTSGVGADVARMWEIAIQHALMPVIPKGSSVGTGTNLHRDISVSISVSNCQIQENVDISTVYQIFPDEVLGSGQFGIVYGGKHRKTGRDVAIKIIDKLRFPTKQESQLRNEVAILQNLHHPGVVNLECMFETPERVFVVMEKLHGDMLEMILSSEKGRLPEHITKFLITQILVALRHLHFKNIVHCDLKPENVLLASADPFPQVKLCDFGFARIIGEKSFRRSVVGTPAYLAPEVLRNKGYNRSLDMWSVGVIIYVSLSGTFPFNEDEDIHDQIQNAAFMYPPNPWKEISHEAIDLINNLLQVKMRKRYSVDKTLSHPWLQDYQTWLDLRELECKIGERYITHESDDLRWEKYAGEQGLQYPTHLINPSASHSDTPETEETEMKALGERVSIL

340 wild-type kinases [8] = target: T8, 340 wild-type kinases (Homo sapiens, UniProt O94806)
T8 construct: purchased Reaction Biology Europe
T8 sequence (O94806 1-890): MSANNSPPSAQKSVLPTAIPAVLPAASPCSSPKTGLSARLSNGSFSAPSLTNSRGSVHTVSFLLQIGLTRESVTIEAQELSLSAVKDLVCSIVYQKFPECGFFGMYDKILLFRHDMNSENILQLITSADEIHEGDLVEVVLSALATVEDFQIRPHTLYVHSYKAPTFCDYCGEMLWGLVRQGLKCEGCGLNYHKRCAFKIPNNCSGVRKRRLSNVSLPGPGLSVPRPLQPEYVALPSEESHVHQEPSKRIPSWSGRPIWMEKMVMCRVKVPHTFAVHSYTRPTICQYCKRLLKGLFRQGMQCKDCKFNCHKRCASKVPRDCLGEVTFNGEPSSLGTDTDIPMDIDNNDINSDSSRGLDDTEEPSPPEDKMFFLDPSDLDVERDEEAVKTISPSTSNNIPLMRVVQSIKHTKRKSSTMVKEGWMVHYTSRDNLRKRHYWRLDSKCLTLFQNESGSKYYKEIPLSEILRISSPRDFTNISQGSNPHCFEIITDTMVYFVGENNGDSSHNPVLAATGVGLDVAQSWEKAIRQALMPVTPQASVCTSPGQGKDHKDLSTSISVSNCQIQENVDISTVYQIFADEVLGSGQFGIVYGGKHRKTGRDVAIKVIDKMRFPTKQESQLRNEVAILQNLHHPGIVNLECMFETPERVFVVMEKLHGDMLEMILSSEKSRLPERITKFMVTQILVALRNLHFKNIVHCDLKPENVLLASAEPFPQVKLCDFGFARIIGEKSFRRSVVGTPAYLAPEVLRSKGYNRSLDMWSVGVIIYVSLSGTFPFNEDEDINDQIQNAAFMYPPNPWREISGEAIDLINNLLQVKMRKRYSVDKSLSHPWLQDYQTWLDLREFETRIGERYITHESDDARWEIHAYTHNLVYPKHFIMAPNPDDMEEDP

SMILES: CNC(=O)c1ccc2c(c1)C(=O)c1ccc(Nc3ccc(F)c(NC(=O)C4CC4)c3)cc1CC2 [Compound 2015]
- remaining activity at 0.2 µM (340 wild-type kinases [1]; 0.2 µM 2015, read-out: CDC42BPA residual activity): 118%
- remaining activity at 1 µM (340 wild-type kinases [1]; 1 µM 2015, read-out: CDC42BPA residual activity): 112%
- remaining activity at 0.2 µM (340 wild-type kinases [1]; CDC42BPA, 0.2 µM, read-out: residual activity): 118%
- remaining activity at 1 µM (340 wild-type kinases [1]; CDC42BPA, 1 µM, read-out: residual activity): 112%
- remaining activity at 0.2 µM (340 wild-type kinases [2]; 0.2 µM 2015, read-out: AuroraC residual activity): 88.5%
- remaining activity at 1 µM (340 wild-type kinases [2]; 1 µM 2015, read-out: AuroraC residual activity): 96.3%
- remaining activity at 0.2 µM (340 wild-type kinases [2]; AuroraC, 0.2 µM, read-out: residual activity): 88.5%
- remaining activity at 1 µM (340 wild-type kinases [2]; AuroraC, 1 µM, read-out: residual activity): 96.3%
- remaining activity at 0.2 µM (340 wild-type kinases [3]; 0.2 µM 2015, read-out: RIPK2 residual activity): 73.7%
- remaining activity at 1 µM (340 wild-type kinases [3]; 1 µM 2015, read-out: RIPK2 residual activity): 120%
- remaining activity at 0.2 µM (340 wild-type kinases [3]; RIPK2, 0.2 µM, read-out: residual activity): 73.7%
- remaining activity at 1 µM (340 wild-type kinases [3]; RIPK2, 1 µM, read-out: residual activity): 120%
- remaining activity at 0.2 µM (340 wild-type kinases [4]; 0.2 µM 2015, read-out: WNK1 residual activity): 95%
- remaining activity at 1 µM (340 wild-type kinases [4]; 1 µM 2015, read-out: WNK1 residual activity): 91.4%
- remaining activity at 0.2 µM (340 wild-type kinases [4]; WNK1, 0.2 µM, read-out: residual activity): 95%
- remaining activity at 1 µM (340 wild-type kinases [4]; WNK1, 1 µM, read-out: residual activity): 91.4%
- remaining activity at 0.2 µM (340 wild-type kinases [5]; 0.2 µM 2015, read-out: PIM1 residual activity): 88.3%
- remaining activity at 1 µM (340 wild-type kinases [5]; 1 µM 2015, read-out: PIM1 residual activity): 91%
- remaining activity at 0.2 µM (340 wild-type kinases [5]; PIM1, 0.2 µM, read-out: residual activity): 88.3%
- remaining activity at 1 µM (340 wild-type kinases [5]; PIM1, 1 µM, read-out: residual activity): 91%
- remaining activity at 0.2 µM (340 wild-type kinases [6]; 0.2 µM 2015, read-out: AMPKalpha1 residual activity): 91.7%
- remaining activity at 1 µM (340 wild-type kinases [6]; 1 µM 2015, read-out: AMPKalpha1 residual activity): 101%
- remaining activity at 0.2 µM (340 wild-type kinases [6]; AMPKalpha1, 0.2 µM, read-out: residual activity): 91.8%
- remaining activity at 1 µM (340 wild-type kinases [6]; AMPKalpha1, 1 µM, read-out: residual activity): 101%
- remaining activity at 0.2 µM (340 wild-type kinases [7]; 0.2 µM 2015, read-out: PKCmu residual activity): 98.1%
- remaining activity at 1 µM (340 wild-type kinases [7]; 1 µM 2015, read-out: PKCmu residual activity): 95.1%
- remaining activity at 0.2 µM (340 wild-type kinases [7]; PKCmu, 0.2 µM, read-out: residual activity): 98.1%
- remaining activity at 1 µM (340 wild-type kinases [7]; PKCmu, 1 µM, read-out: residual activity): 95.1%
- remaining activity at 0.2 µM (340 wild-type kinases [8]; 0.2 µM 2015, read-out: PKCnu residual activity): 88.9%
- remaining activity at 1 µM (340 wild-type kinases [8]; 1 µM 2015, read-out: PKCnu residual activity): 96.9%
- remaining activity at 0.2 µM (340 wild-type kinases [8]; PKCnu, 0.2 µM, read-out: residual activity): 88.9%
- remaining activity at 1 µM (340 wild-type kinases [8]; PKCnu, 1 µM, read-out: residual activity): 96.9%
